“And” between values parts separate entries of the source, which are not always exact repeats. Equal entries are not always repeated.
Tests used:
[1] = target: 5-hydroxytryptamine receptor 4 (Cavia porcellus, UniProt O70528)
[2] = target: 5-hydroxytryptamine receptor 1E (Homo sapiens, UniProt P28566)
[3] = target: 5-hydroxytryptamine receptor 1D (Rattus norvegicus, UniProt P28565)
[4] = target: 5-hydroxytryptamine receptor 7 (Mus musculus, UniProt P32304)
[5] = target: 5-hydroxytryptamine receptor 1B (Mus musculus, UniProt P28334)
Sequence of 5-hydroxytryptamine receptor 1B (Mus musculus, UniProt P28334) (P28334 whole entry): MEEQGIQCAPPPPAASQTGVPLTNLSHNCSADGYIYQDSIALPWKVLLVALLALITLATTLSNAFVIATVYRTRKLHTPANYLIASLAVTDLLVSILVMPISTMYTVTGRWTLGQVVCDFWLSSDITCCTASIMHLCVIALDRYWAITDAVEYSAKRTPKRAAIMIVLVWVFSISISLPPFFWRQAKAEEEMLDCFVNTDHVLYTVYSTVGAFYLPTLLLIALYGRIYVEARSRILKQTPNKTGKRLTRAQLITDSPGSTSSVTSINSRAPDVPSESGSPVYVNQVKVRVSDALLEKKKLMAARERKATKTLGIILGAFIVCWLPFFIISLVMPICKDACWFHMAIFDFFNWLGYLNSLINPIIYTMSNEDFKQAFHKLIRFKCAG

[6] = target: 5-hydroxytryptamine receptor 2B (Rattus norvegicus, UniProt P30994)
Sequence of 5-hydroxytryptamine receptor 2B (Rattus norvegicus, UniProt P30994) (P30994 whole entry): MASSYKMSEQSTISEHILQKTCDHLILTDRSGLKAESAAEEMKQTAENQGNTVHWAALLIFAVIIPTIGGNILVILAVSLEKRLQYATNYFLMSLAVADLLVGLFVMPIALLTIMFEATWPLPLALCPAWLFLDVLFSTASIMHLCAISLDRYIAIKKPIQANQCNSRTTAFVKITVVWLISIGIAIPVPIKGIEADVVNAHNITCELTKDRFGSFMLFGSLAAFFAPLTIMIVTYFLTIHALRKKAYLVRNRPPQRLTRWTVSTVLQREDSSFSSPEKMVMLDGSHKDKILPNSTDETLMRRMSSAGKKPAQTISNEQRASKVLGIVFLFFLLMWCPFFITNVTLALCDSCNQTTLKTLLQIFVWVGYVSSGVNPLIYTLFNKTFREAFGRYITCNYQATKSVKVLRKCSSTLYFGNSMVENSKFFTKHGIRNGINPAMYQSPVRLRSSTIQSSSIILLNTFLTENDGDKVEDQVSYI

[7] = target: T1, 5-hydroxytryptamine receptor 1F (Rattus norvegicus, UniProt P30940)
T1 sequence (P30940 whole entry): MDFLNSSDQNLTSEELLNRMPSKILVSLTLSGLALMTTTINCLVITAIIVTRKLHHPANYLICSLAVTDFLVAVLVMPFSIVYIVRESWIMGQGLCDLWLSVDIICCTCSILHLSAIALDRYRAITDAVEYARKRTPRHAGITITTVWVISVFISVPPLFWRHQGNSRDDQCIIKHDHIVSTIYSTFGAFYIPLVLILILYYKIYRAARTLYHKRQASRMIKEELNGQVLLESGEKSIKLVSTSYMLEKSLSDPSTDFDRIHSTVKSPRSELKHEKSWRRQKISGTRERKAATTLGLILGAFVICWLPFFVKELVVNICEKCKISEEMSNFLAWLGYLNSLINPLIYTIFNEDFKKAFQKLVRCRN

[8] = target: 5-hydroxytryptamine receptor 5A (Rattus norvegicus, UniProt P35364)
Sequence of 5-hydroxytryptamine receptor 5A (Rattus norvegicus, UniProt P35364) (P35364 whole entry): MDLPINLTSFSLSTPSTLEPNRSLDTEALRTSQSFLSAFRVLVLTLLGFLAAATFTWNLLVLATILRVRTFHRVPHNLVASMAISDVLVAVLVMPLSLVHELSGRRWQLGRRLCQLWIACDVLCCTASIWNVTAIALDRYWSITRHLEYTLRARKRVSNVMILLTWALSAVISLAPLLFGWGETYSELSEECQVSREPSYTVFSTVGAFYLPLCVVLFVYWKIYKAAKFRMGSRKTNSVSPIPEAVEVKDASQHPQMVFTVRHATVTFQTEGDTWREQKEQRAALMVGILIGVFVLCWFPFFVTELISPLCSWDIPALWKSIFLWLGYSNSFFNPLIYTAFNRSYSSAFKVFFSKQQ

[9] = target: T2, 5-hydroxytryptamine receptor 1F (Mus musculus, UniProt Q02284)
T2 sequence (Q02284 whole entry): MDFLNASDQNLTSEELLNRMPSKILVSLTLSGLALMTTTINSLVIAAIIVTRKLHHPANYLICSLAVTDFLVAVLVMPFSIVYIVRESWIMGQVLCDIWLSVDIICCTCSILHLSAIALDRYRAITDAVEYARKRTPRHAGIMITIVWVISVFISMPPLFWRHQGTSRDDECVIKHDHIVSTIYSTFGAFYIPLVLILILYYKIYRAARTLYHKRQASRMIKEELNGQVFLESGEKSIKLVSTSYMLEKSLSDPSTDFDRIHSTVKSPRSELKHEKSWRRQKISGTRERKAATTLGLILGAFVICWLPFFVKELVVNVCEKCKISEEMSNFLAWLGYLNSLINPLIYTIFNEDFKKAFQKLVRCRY

[10] = target: 5-hydroxytryptamine receptor 5A (Mus musculus, UniProt P30966)
Sequence of 5-hydroxytryptamine receptor 5A (Mus musculus, UniProt P30966) (P30966 whole entry): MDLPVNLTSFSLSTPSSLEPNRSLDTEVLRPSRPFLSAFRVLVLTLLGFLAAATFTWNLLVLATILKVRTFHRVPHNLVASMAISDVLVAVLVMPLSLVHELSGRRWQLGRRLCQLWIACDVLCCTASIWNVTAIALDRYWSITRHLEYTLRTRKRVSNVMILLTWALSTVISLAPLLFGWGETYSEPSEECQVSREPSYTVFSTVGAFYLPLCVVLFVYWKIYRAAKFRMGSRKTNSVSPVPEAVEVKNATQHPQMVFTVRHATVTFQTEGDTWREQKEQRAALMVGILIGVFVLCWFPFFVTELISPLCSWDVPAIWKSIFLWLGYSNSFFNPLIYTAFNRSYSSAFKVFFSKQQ

[11] = target: 5-hydroxytryptamine receptor 2B (Mus musculus, UniProt Q02152)
Sequence of 5-hydroxytryptamine receptor 2B (Mus musculus, UniProt Q02152) (Q02152 whole entry): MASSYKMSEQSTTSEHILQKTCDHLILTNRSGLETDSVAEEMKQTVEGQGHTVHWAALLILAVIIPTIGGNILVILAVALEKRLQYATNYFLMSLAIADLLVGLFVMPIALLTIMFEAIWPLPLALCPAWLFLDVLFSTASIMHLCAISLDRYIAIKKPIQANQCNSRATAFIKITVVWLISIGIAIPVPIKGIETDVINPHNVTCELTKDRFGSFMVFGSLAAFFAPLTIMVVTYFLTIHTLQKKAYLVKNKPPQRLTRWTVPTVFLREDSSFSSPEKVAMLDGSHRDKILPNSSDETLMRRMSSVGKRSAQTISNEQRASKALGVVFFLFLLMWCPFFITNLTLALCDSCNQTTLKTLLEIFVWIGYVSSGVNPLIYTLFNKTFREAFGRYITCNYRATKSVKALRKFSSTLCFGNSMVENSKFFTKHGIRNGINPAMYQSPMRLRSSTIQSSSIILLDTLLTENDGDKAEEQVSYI

[12] = target: T3, 5-hydroxytryptamine receptor 2C (Rattus norvegicus, UniProt P08909)
T3 sequence (P08909 whole entry): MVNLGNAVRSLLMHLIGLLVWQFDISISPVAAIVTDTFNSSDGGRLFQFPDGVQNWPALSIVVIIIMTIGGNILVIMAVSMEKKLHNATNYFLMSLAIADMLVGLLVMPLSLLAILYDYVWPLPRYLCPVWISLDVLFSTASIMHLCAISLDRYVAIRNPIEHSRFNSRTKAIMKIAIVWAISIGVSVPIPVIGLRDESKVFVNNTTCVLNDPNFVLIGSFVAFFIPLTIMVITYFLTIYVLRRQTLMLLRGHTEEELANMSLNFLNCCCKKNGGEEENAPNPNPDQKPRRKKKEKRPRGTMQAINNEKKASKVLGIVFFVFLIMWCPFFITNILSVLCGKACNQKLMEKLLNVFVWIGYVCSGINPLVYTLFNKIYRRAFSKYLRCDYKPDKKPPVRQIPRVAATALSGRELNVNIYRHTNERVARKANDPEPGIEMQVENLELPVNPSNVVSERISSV

[13] = target: 5-hydroxytryptamine receptor 1D (Canis lupus familiaris, UniProt P11614)
Sequence of 5-hydroxytryptamine receptor 1D (Canis lupus familiaris, UniProt P11614) (P11614 whole entry): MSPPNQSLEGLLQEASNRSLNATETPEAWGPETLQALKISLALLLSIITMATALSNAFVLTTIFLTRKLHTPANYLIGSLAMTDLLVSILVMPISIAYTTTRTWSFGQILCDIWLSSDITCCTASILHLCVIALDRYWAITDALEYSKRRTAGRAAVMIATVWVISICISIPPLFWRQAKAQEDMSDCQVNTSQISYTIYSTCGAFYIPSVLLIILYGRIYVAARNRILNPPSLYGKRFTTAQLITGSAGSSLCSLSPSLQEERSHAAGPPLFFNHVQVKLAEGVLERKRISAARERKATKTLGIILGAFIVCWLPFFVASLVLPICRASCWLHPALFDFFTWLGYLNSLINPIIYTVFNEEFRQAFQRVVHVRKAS

[14] = target: 5-hydroxytryptamine receptor 2A (Rattus norvegicus, UniProt P14842)
[15] = target: 5-hydroxytryptamine receptor 5B (Rattus norvegicus, UniProt P35365)
Sequence of 5-hydroxytryptamine receptor 5B (P35365 whole entry): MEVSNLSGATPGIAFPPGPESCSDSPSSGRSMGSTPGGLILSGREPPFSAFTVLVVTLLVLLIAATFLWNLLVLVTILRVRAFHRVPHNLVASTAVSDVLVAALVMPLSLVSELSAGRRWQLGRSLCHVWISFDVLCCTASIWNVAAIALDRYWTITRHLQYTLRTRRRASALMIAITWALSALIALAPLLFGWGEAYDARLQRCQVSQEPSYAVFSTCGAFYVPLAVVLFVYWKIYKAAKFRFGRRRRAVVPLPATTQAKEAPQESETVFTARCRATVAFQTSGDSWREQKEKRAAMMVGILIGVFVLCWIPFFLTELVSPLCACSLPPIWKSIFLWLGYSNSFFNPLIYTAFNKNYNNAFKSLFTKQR

[16] = target: 5-hydroxytryptamine receptor 1B (Rattus norvegicus, UniProt P28564)
Sequence of 5-hydroxytryptamine receptor 1B (Rattus norvegicus, UniProt P28564) (P28564 whole entry): as the sequence (P28334 whole entry) above, with A15T, T23A, G33D, E152D, M192V, A270V, D272E, A385T counted along it

[17] = target: T4, 5-hydroxytryptamine receptor 3A (Mus musculus, UniProt P23979)
T4 sequence (P23979 whole entry): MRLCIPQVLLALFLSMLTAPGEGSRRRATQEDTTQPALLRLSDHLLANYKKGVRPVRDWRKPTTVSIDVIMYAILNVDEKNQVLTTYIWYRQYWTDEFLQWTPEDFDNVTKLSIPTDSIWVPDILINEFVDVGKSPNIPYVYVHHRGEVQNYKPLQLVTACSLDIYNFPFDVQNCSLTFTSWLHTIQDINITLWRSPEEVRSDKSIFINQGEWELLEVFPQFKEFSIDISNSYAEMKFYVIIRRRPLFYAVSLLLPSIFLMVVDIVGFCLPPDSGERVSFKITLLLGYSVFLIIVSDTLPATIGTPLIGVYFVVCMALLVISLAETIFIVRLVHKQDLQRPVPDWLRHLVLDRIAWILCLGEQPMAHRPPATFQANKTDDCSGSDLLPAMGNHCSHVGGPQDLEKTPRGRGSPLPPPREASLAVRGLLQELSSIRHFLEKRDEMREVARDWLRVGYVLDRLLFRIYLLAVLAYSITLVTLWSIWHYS

[18] = target: T5, 5-hydroxytryptamine receptor 1F (Homo sapiens, UniProt P30939)
T5 sequence (P30939 whole entry): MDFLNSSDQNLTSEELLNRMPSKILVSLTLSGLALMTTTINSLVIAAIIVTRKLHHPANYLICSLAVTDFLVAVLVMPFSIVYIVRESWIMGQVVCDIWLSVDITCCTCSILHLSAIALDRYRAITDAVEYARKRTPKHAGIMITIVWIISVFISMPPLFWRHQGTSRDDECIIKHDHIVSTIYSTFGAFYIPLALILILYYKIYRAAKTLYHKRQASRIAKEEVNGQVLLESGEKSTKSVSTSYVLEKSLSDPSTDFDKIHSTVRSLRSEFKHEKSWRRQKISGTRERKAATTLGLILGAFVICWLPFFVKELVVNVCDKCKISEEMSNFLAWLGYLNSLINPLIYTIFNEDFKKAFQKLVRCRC

Sequence of 5-hydroxytryptamine receptor 1E (P28566 whole entry): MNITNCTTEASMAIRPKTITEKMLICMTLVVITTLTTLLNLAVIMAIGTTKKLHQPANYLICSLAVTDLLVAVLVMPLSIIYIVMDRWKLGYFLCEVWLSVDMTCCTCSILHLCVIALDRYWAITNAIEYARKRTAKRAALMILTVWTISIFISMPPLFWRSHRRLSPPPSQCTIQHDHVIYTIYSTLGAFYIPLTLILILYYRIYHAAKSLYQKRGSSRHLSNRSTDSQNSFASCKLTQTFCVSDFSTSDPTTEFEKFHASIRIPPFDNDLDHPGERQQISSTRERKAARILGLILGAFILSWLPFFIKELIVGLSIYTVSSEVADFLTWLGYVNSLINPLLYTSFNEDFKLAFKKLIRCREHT
Sequence of 5-hydroxytryptamine receptor 4 (O70528 whole entry): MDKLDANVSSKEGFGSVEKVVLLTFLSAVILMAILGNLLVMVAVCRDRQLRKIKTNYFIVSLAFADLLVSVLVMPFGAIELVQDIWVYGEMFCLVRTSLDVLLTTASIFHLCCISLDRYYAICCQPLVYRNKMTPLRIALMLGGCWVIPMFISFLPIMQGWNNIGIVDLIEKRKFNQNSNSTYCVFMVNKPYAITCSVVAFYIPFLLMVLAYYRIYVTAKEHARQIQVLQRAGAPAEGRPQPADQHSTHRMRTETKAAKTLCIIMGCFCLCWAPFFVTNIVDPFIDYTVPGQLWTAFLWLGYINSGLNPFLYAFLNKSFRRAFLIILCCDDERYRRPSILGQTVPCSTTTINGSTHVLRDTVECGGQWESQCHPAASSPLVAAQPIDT
Sequence of 5-hydroxytryptamine receptor 7 (P32304 whole entry): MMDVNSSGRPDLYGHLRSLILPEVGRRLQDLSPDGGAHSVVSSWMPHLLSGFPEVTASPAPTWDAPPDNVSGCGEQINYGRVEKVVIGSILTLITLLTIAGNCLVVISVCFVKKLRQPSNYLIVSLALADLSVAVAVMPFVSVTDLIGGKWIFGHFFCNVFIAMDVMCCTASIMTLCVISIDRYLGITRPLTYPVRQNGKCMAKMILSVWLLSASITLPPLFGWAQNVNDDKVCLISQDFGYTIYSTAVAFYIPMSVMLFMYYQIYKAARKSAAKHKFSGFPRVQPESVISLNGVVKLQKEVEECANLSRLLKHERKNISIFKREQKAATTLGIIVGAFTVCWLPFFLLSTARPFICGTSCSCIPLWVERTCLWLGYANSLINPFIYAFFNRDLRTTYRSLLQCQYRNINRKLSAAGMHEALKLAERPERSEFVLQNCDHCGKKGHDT
Sequence of 5-hydroxytryptamine receptor 1D (Rattus norvegicus, UniProt P28565) (P28565 whole entry): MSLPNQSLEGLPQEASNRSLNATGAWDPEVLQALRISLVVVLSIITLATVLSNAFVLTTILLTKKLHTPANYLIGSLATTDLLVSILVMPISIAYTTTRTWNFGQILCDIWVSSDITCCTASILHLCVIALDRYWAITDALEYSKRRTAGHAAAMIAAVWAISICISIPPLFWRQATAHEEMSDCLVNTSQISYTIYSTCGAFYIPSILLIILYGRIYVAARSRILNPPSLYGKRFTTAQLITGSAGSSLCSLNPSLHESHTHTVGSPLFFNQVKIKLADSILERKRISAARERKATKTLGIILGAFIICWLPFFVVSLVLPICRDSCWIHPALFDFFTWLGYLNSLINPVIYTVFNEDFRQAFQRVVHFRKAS

Compound	Ki [1]	Ki [2]	Ki [4] [nM]	Ki [7] [nM]	Ki [8] [nM]	Ki [9] [nM]	Ki [10]	Ki [11] [nM]	Ki [12]	further results
NCCc1c[nH]c2ccc(C(N)=O)cc12 [[3H]-5-carboxamidotryptamine]	> 10000 nM	7080 nM and 3310 nM	1	2450	12.6	3160	15.8 nM and 12.6 nM			Ki [3]: 0.37 nM; Ki [5]: 10 nM; Ki [6]: 151 nM
CC(C)n1c(=O)n(C(=O)NC2CC3CCC(C2)N3C)c2ccccc21 (stereo not given) [BIMU 8]	25.1 nM and 12.6 nM									
c1ccc2nc(N3CCNCC3)ccc2c1 [2-Piperazin-1-yl-quinoline (Quipazine)]								6610	257 nM	
COc1cc(N)c(Cl)cc1C(=O)N[C@H]1CN2CCC1CC2 [4-Amino-N-(R)-1-aza-bicyclo[2.2.2]oct-3-yl-5-chloro-2-methoxy-benzamide]	251 nM and 200 nM									
NCCc1c[nH]c2ccc(O)cc12 [[3H]-5-HT]			5.01	67.6	240	126				Ki [13]: 15.8 nM; Ki [5]: 39.8 nM
CN(C)CCCSc1ccccc1NC(=O)/C=C/c1ccccc1 [CINANSERIN]										Ki [14]: 6.02 nM
CN1C[C@H](C(=O)N[C@]2(C)O[C@@]3(O)[C@@H]4CCCN4C(=O)[C@H](Cc4ccccc4)N3C2=O)C=C2c3cccc4[nH]cc(c34)C[C@H]21 [12'-hydroxy-2'-methyl-5'alpha-(phenylmethyl)ergotaman-3',6',18-trione]		575 nM and 537 nM	50.1	52.5		50.1	6.3 nM			Ki [15]: 15.8 nM; Ki [3]: 0.07 nM; Ki [13]: 1.94 nM; Ki [16]: 0.03 nM
Clc1cncc(N2CCNCC2)n1 [L-630,571]									339 nM	
CC[C@@H](CO)NC(=O)[C@@H]1C=C2c3cccc4c3c(cn4C)C[C@H]2N(C)C1		324 nM and 219 nM	12.6	13.5	195	6.3	79.4 nM	12.6		Ki [15]: 1000 nM; Ki [17]: > 10000 nM; Ki [16]: 1820 nM and 437 nM
O=C(c1ccc(F)cc1)C1CCN(CCn2c(=O)[nH]c3ccccc3c2=O)CC1 [3-(2-{4-[(4-fluorophenyl)carbonyl]piperidin-1-yl}ethyl)-1,2,3,4-tetrahydroquinazoline-2,4-dione]								204	47.9 nM and 20.9 nM	Ki [6]: 3550 nM; Ki [18]: 1.25 nM

From BindingDB's records for doi:10.1016/0028-3908(94)90059-0 (University of Alberta, 1994)
